Data set [1] is classed as physicochemical. The conditions noted are these: SGF with pepsin, pH 1.5, 37° C., 0.5 mM.
Data set [2] is classed as physicochemical. Particulars: DI water, 25° C., 0.5 mM.

Like-named read-outs stand apart in the source and are kept apart here. Marks after values point to notes of the source that are not given here.

For the compound `COc1ccc([C@]23CCN(C)[C@H]2CC(OC)(OC)CC3)cc1OC` (stereo in doubt) [Compound 190, 3a-(3,4-dimethoxyphenyl)-6,6-dimethoxy-1-methyl-2,3,4,5,7,7a-hexahydroindole], the “Condition 1 Conversion (%)” value in data set [1] (time 1 min) was 0%; in data set [1] (time 5 min) it was 8.30%; in data set [1] (time 30 min) it was 82.97%; in data set [1] (time 1 h), 100%; in data set [1] (time 4 h) it was 100%; in data set [1] (time 24 h) it was 100%. Further, the “Condition 2 Conversion (%)” value in data set [2] (time 1 min), in data set [2] (time 5 min), in data set [2] (time 30 min), in data set [2] (time 1 h), in data set [2] (time 4 h) and in data set [2] (time 24 h) was 0% in each case.
In the case of `COc1ccc(C23CCC(=NNC(=O)Nc4ccccc4)C[C@@H]2N(C)CC3)cc1OC` (stereo in doubt) [Compound 198, 1-[[(3aR)-3a-(3,4-dimethoxyphenyl)-1-methyl-2,3,4,5,7,7a-hexahydroindol-6-ylidene]amino]-3-phenyl-urea], the “Condition 1 Conversion (%)” value in data set [1] (time 1 min) was found to be 0.86%; in data set [1] (time 5 min), 1%; in data set [1] (time 30 min), 1%; in data set [1] (time 1 h), 1%; in data set [1] (time 4 h), 1%; in data set [1] (time 24 h), 1%. The “Condition 2 Conversion (%)” value in data set [2] (time 1 min) is 0.2%; in data set [2] (time 5 min), 0.21%; in data set [2] (time 30 min), 0.22%; in data set [2] (time 1 h), 0.55%; in data set [2] (time 4 h), 0.89%; in data set [2] (time 24 h), 0.8%.
As to `COc1ccc([C@]23CCN(C)[C@H]2CC2(CC3)OCC(c3ccc([N+](=O)[O-])cc3)O2)cc1OC` (stereo partly drawn) [Compound 114, (3a'S,7a'S)-3a′-(3,4-dimethoxyphenyl)-1′-methyl-4-(4-nitrophenyl)octahydrospiro[[1,3]dioxolane-2,6′-indole]], the “Condition 1 Conversion (%)” value in data set [1] (time 1 min), in data set [1] (time 5 min), in data set [1] (time 30 min), in data set [1] (time 1 h), in data set [1] (time 4 h) and in data set [1] (time 24 h) was 0% in each case.
As to `COc1ccc([C@@]23CCC(=NNC(=O)c4ccncc4)C[C@@H]2N(C)CC3)cc1OC` [Compound 157, N-[[(3aS,7aS)-3a-(3,4-dimethoxyphenyl)-1-methyl-2,3,4,5,7,7a-hexahydroindol-6-ylidene]amino]pyridine-4-carboxamide], the “Condition 1 Conversion (%)” value in data set [1] (time 1 min), in data set [1] (time 5 min), in data set [1] (time 30 min), in data set [1] (time 1 h), in data set [1] (time 4 h) and in data set [1] (time 24 h) was 100% throughout.
With `COc1ccc([C@@]23CCC(=NNC(=O)CC[C@H](NC(=O)c4ccc(NCc5cnc6nc(N)nc(O)c6n5)cc4)C(=O)O)C[C@@H]2N(C)CC3)cc1OC` [Compound 172, (2S)-5-[2-[(3aS,7aS)-3a-(3,4-dimethoxyphenyl)-1-methyl-2,3,4,5,7,7a-hexahydroindol-6-ylidene]hydrazino]-2-[[4-[(2-amino-4-hydroxy-pteridin-6-yl)methylamino]benzoyl]amino]-5-oxo-pentanoic acid], the “Condition 1 Conversion (%)” value in data set [1] (time 1 min), in data set [1] (time 5 min), in data set [1] (time 30 min), in data set [1] (time 1 h), in data set [1] (time 4 h) and in data set [1] (time 24 h) was 100% in each case. Moreover, the “Condition 2 Conversion (%)” value in data set [2] (time 1 min) is listed as 50* %; in data set [2] (time 5 min), 70* %; in data set [2] (time 30 min) it was 100%; in data set [2] (time 1 h), 100%; in data set [2] (time 4 h), 100%; in data set [2] (time 24 h), 100%.
For the compound `COc1ccc([C@]23CCN(C)[C@H]2CC2(CC3)OC[C@H]([C@@H](O)[C@@H](O)Cn3c4nc(=O)[nH]c(=O)c-4nc4cc(C)c(C)cc43)O2)cc1OC` (stereo partly drawn) [Compound 174, 10-[(2S,3S)-3-[(3′aS,4R)-3′a-(3,4-dimethoxyphenyl)-1′-methyl-spiro[1,3-dioxolane-2,6′-2,3,4,5,7,7a-hexahydroindole]-4-yl]-2,3-dihydroxy-propyl]-7,8-dimethyl-benzo[g]pteridine-2,4-dione], the “Condition 1 Conversion (%)” value in data set [1] (time 1 min), in data set [1] (time 5 min), in data set [1] (time 30 min), in data set [1] (time 1 h), in data set [1] (time 4 h) and in data set [1] (time 24 h) was 0% each time.
Regarding `COc1ccc([C@]23CCN(C)[C@H]2CC2(CC3)O[C@@H]([C@@H](O)Cn3c4nc(=O)[nH]c(=O)c-4nc4cc(C)c(C)cc43)[C@@H](CO)O2)cc1OC` (stereo partly drawn) [Compound 196, 10-[(2S)-2-[(3′aS,4S,5R)-3′a-(3,4-dimethoxyphenyl)-5-(hydroxymethyl)-1′-methyl-spiro[1,3-dioxolane-2,6′-2,3,4,5,7,7a-hexahydroindole]-4-yl]-2-hydroxy-ethyl]-7,8-dimethyl-benzo[g]pteridine-2,4-dione], the “Condition 1 Conversion (%)” value in data set [1] (time 1 min), in data set [1] (time 5 min), in data set [1] (time 30 min), in data set [1] (time 1 h), in data set [1] (time 4 h) and in data set [1] (time 24 h) was 0% throughout.
For the compound `COc1ccc([C@@]23CCC(=NOC(C)(C)C)C[C@@H]2N(C)CC3)cc1OC` [Compound 199, (3aS)-N-tert-butoxy-3a-(3,4-dimethoxyphenyl)-1-methyl-2,3,4,5,7,7a-hexahydroindol-6-imine], the “Condition 1 Conversion (%)” value was 0% in data set [1] (time 1 min); 0% in data set [1] (time 5 min); 0% in data set [1] (time 30 min); 4.2% in data set [1] (time 1 h); 23.6% in data set [1] (time 4 h); 27.3% in data set [1] (time 24 h). For the same compound, the “Condition 2 Conversion (%)” value in data set [2] (time 1 min), in data set [2] (time 5 min), in data set [2] (time 30 min), in data set [2] (time 1 h), in data set [2] (time 4 h) and in data set [2] (time 24 h) was 0% in each case.
For `CCON=C1CC[C@@]2(c3ccc(OC)c(OC)c3)CCN(C)[C@H]2C1` [Compound 200, (3aS,7aS)-3a-(3,4-dimethoxyphenyl)-N-ethoxy-1-methyl-2,3,4,5,7,7a-hexahydroindol-6-imine], the “Condition 1 Conversion (%)” value in data set [1] (time 1 min) was 0%; in data set [1] (time 5 min), 0%; in data set [1] (time 30 min), 0%; in data set [1] (time 1 h), 2.1%; in data set [1] (time 4 h), 27.7%; in data set [1] (time 24 h), 34.1%. Further, the “Condition 2 Conversion (%)” value in data set [2] (time 1 min), in data set [2] (time 5 min), in data set [2] (time 30 min), in data set [2] (time 1 h), in data set [2] (time 4 h) and in data set [2] (time 24 h) was 0% throughout.
With `COc1ccc([C@@]23CCC(=NOCC(=O)O)C[C@@H]2N(C)CC3)cc1OC` [Compound 201, 2-[[(3aS,7aS)-3a-(3,4-dimethoxyphenyl)-1-methyl-2,3,4,5,7,7a-hexahydroindol-6-ylidene]amino]oxyacetic acid], the “Condition 1 Conversion (%)” value amounted to 0% in data set [1] (time 1 min); 0% in data set [1] (time 5 min); 0% in data set [1] (time 30 min); 0% in data set [1] (time 1 h); 7.1% in data set [1] (time 4 h); 14.7% in data set [1] (time 24 h). The “Condition 2 Conversion (%)” value in data set [2] (time 1 min), in data set [2] (time 5 min), in data set [2] (time 30 min), in data set [2] (time 1 h), in data set [2] (time 4 h) and in data set [2] (time 24 h) was 0% in each case.
`CCCC1CO[C@]2(CC[C@@]3(c4ccc(OC)c(OC)c4)CCN(C)C3C2)O1` (stereo partly drawn) [Compound 212, (2R,3′aS)-3′a-(3,4-dimethoxyphenyl)-1′-methyl-4-propyl-spiro[1,3-dioxolane-2,6′-2,3,4,5,7,7a-hexahydroindole]]: the “Condition 1 Conversion (%)” value in data set [1] (time 1 min), in data set [1] (time 5 min), in data set [1] (time 30 min), in data set [1] (time 1 h), in data set [1] (time 4 h) and in data set [1] (time 24 h) was 0% each time.
Turning to `CCCC1CO[C@@]2(CC[C@@]3(c4ccc(OC)c(OC)c4)CCN(C)C3C2)O1` (stereo partly drawn) [Compound 238, (2S,3′aS)-3′a-(3,4-dimethoxyphenyl)-1′-methyl-4-propyl-spiro[1,3-dioxolane-2,6′-2,3,4,5,7,7a-hexahydroindole]], the “Condition 1 Conversion (%)” value in data set [1] (time 1 min), in data set [1] (time 5 min), in data set [1] (time 30 min), in data set [1] (time 1 h), in data set [1] (time 4 h) and in data set [1] (time 24 h) was 0% each time.

Source of the values: patent US20250051277A1, “DELIVERY OF THERAPEUTIC ALKALOID COMPOUNDS” (Sensorium Therapeutics, Inc., priority 2021, published 2025).
